Experimental data as given in PMC8509428, “The Phenoxyalkyltriazine Antagonists for 5-HT6 Receptor with Promising Procognitive and Pharmacokinetic Properties In Vivo in Search for a Novel Therapeutic Approach to Dementia Diseases” (International Journal of Molecular Sciences, 2021).
Like-named read-outs stand apart in the source and are kept apart here.

How the values were obtained:
rats = assay: Exploratory activity measured in the EPM test; assay type: in vivo, rat; settings: mean ± SEM
Method: The experiment was performed using an EPM apparatus (details see above). Total ambulation (the total distance covered by a rat, and ambulation along X and Y axis) was taken to discern drug effects on general activity from those on open-arm exploration, during a 5-min test period (i.e., the time equal to the observation period in the EPM test). Rats’ behavior was not videotaped during the test.

5-HT7R = settings: ± SD; read-out: Ki 5-HT7 (converted); cited from earlier work
[1] = system: Salmonella Typhimurium TA100; assay type: cell-based
Source text: The used Salmonella Typhimurium TA100 strain has base pair substitution (hisG46 mutation, which target is GGG). […] The occurrence of revertants was visualized by pH indicator dye which was present in the bacterial medium.

5-HT2A receptor = target: T1, 5-HT2A receptor (Homo sapiens, UniProt P28223); assay: Functional assay for 5-HT2A receptor (aequorin, CHO-K1 cells); assay type: cell-based
T1 construct: expressed in transfected cells; host or cells: CHO-K1
T1 sequence (P28223 whole entry): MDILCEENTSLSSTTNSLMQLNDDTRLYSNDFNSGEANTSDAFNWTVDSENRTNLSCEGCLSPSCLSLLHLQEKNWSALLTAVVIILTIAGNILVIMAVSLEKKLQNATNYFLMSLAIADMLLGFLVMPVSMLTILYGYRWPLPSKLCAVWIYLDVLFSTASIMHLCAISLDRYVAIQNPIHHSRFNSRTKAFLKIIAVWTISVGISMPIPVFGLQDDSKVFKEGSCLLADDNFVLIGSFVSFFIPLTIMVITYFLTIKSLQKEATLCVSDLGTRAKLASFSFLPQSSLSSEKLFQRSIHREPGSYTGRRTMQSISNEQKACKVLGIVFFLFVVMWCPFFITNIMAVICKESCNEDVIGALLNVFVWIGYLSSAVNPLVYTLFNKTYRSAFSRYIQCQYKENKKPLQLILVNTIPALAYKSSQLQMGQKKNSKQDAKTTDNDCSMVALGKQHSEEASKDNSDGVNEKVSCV
Method: Test compounds were dissolved in dimethyl sulfoxide (DMSO) at a concentration of 10 mM. Serial dilutions were prepared in a 96-well microplate in assay buffer and eight concentrations were tested. A cellular aequorin-based functional assay was performed with recombinant CHO-K1 cells expressing mitochondrially targeted aequorin, human GPCR and the promiscuous G protein α16 for 5-HT2A. […] After thawing, cells were transferred to assay buffer (DMEM/HAM’s F12 with 0.1% protease-free BSA) and centrifuged. The cell pellet was resuspended in assay buffer and coelenterazine h was added at final concentrations of 5 μM. […] After 1 h of incubation, 50 μL of the cells suspension was dispensed using automatic injectors built into the plate reader POLARstar Omega, (BMG Labtech, Ortenberg, Germany) onto a white opaque 96-well microplates preloaded with test compounds. Immediate light emission generated following calcium mobilization was recorded for 30 s. In antagonist mode, after 30 min of incubation, the reference agonist was added to the above assay mix and light emission was recorded again. The final concentration of the reference agonist was equal to EC80.

human 5-HT6R = settings: ± SD; read-out: Ki 5-HT6 (converted); cited from earlier work
[2] = system: neuroblastoma SH-SY5Y cells; assay: Neurotoxicity in SH-SY5Y (MTS and LDH assays); assay type: cell-based, human; settings: 100 μM, 48 h, vs control cells
Method: Human neuroblastoma cell line SH-SY5Y (ATCC® no. CRL-2266™) was used for neurotoxicity evaluation. […] To perform dose–response analysis, 2-fold serial dilutions (12 points) were prepared. Treatment with compounds was performed for 48 h. After the incubation time, 100μL of culture medium was transferred to black well plates to examined membrane integrity using the CytoTox-ONE™ Homogeneous Membrane Integrity Assay (Promega, Madison, WI, USA) following the manufacturer’s protocol. Briefly, a volume of 100 µL CytoTox-ONE™ reagent was added to each well and carefully mixed under gentle shaking. […] The plate was incubated at room temperature for 15 min and the fluorescence was then recorded at an excitation wavelength of 560 nm and an emission wavelength of 590 nm using the microplate reader EnSpire (PerkinElmer, Waltham, MA, USA). […] Cytotoxicity is expressed as a percentage relative to the positive control, which is assumed to be responsible for 100% LDH release.
The cell viability was examined using an MTS-based [3-(4,5-dimethylthiazol-2-yl)-5-(3-carboxymethoxyphenyl)-2-(4-sulfophenyl)-2 H tetrazolium] […] After incubation time, formazan product turnover absorbance was measured at 490 nm using the microplate reader EnSpire (PerkinElmer, Waltham, MA, USA). […]

PAMPA permeability = assay type: in vitro ADME; settings: PBS pH 7.4, 5 h, triplicate, read-out: Pe (PAMPA permeability coefficient) ± SD
Method: The 96-well Pre-coated PAMPA Plate System Gentest™ that was used was obtained from Corning (Tewksbury, MA, USA). […] 200 μL/well of PBS was added to the acceptor wells. All compounds were analyzed in triplicate. The plate was incubated at room temperature for 5 h. Then, the 50 μL was aspirated from each well and diluted next with 50 µL solution of an internal standard (IS). The compounds’ concentrations in acceptor and donor wells were estimated by the UPLC-MS analyses, which were performed by LC/MS Waters ACQUITY™ TQD system with the TQ Detector (Waters, Milford, CT, USA). The permeability coefficients (Pe, cm/s) were calculated according described previously formulas.

5-HT1AR = target: T2, 5-HT1AR (Homo sapiens, UniProt P08908); assay: Radioligand binding assay (RBA), 5-HT1AR; settings: ± SD; displacement of [3H]-8-OHDPAT, HEK-293 cells; read-out: Ki 5-HT1A (converted)
T2 construct: expressed in transfected cells; host or cells: HEK-293
T2 sequence (P08908 1-422): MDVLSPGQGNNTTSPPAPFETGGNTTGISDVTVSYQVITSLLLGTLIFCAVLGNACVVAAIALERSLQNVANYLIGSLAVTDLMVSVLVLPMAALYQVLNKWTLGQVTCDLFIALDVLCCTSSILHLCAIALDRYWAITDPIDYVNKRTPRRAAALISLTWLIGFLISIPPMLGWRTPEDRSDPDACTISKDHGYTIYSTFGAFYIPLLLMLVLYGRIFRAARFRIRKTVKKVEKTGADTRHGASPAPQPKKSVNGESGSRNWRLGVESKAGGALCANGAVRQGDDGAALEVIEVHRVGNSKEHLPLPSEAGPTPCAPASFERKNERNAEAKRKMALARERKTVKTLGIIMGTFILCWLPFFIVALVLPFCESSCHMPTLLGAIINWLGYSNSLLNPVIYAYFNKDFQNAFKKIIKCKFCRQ
Method: The cells used in the radioligand binding assays receptor 5-HT1A were stably expressed in HEK-293 cells. Transfections were performed with the use of Lipofectamine 2000. The binding procedure was accomplished via the displacement of 2.5 nM [^3H]-8-OHDPAT (135.2 Ci/mmol) for 5-HT1AR. Each compound was tested in triplicate in seven to eight different concentrations (10^−11 to 10^−4 M). The inhibition constants (Ki) were calculated using the Cheng–Prusoff equation [45] and the results are expressed as the mean of at least two independent experiments.

SMILES: CCC(Oc1cccc(Cl)c1Cl)c1nc(N)nc(N2CCN(C)CC2)n1 (racemic) [Compound 2, (RS)-4-[1-(2,3-dichlorophenoxy)propyl]-6-(4-methylpiperazin-1-yl)-1,3,5-triazin-2-amine]
- Total Distance (rats; 0.3 mg/kg i.p.): 4372 ± 132 cm
- X Ambulation (rats; 0.3 mg/kg i.p.): 180 ± 9
- Y Ambulation (rats; 0.3 mg/kg i.p.): 101 ± 9
- Total Distance (rats; 1 mg/kg i.p.): 3987 ± 281 cm
- X Ambulation (rats; 1 mg/kg i.p.): 149 ± 18
- Y Ambulation (rats; 1 mg/kg i.p.): 78 ± 9
- Total Distance (rats; 3 mg/kg i.p.): 4595± 191 F(3,23) = 2.9772; NS cm
- X Ambulation (rats; 3 mg/kg i.p.): 168 ± 6 F(3,23) = 1.9417; NS
- Y Ambulation (rats; 3 mg/kg i.p.): 115 ± 7 F(3,23) = 3.1727; NS
- Ki (5-HT7R): 5200 nM
- Binomial B-Value ([1]; 1 µM): 0.2601
- Number of Revertants ± SD ([1]; 1 µM): 12.00 ± 7.55
- Binomial B-Value ([1]; 10 µM): 0.5425
- Number of Revertants ± SD ([1]; 10 µM): 13.33 ± 2.31
- Emax (5-HT2A receptor; Table S2, read-out: 5-HT2A Antagonist mode Emax): 1%
- Emax (5-HT2A receptor; read-out: 5-HT2AR Agonist Mode Emax): 21 ± 0.6%
- Ki (human 5-HT6R): 6 ± 2 nM
- increase of LDH leakage [2]: 86%
- Papp at 5 h (PAMPA permeability): 20.5 ± 5.4 ×10⁻⁶ cm/s
- Ki (5-HT1AR): 521 nM

SMILES: CCC(Oc1ccccc1)c1nc(N)nc(N2CCN(C)CC2)n1 (racemic) [Compound 3, (RS)-4-(4-methylpiperazin-1-yl)-6-(1-phenoxypropyl)-1,3,5-triazin-2-amine]
- Total Distance (rats; 0.3 mg/kg i.p.): 4033 ± 340 cm
- X Ambulation (rats; 0.3 mg/kg i.p.): 151 ± 16
- Y Ambulation (rats; 0.3 mg/kg i.p.): 80 ± 8
- Total Distance (rats; 1 mg/kg i.p.): 4102 ± 291 cm
- X Ambulation (rats; 1 mg/kg i.p.): 136 ± 15
- Y Ambulation (rats; 1 mg/kg i.p.): 86 ± 10
- Total Distance (rats; 3 mg/kg i.p.): 3545 ± 136 F(3,22) = 0.9071; NS cm
- X Ambulation (rats; 3 mg/kg i.p.): 123 ± 5 F(3,22) = 0.6336; NS
- Y Ambulation (rats; 3 mg/kg i.p.): 73 ± 5 F(3,22) = 0.3805; NS
- Ki (5-HT7R): 19900 nM
- Binomial B-Value ([1]; 1 µM): 0.0001
- Number of Revertants ± SD ([1]; 1 µM): 0.33 ± 0.58
- Binomial B-Value ([1]; 10 µM): 0.0324
- Number of Revertants ± SD ([1]; 10 µM): 1.67 ± 1.53
- Ki (human 5-HT6R): 21 nM
- Papp at 5 h (PAMPA permeability): 15.1 ± 1 ×10⁻⁶ cm/s
- Ki (5-HT1AR): 3640 nM
